Here are results for 1 compound from US20010041801A1, “Water soluble fullerenes with antiviral activity” (The Regents of the University of California, priority 1994, published 2001).

Series [1] has as its target pepsin (Homo sapiens, UniProt P0DJD8). As to the kind of experiment: Pepsin inhibition assay. The series is classed as biochemical. The conditions noted are these: 0.028 μM enzyme, 0.2 M sodium citrate pH 2.0, 37° C.; read-out: IC50 against pepsin. The text has this: (§1) Compound 2c also has antiprotease activity. […] The method used for the assay was similar to that described by Ido, et al., J. Biol. Chem., 266:24359-24366, 1991).

The target of series [2] is T1, recombinant HIV-1 protease (Human immunodeficiency virus type 1 group M subtype B, UniProt P04585).
T1 construct: HIV produces a small, dimeric aspartyl protease which specifically cleaves the polyprotein precursors
As to the kind of experiment: Antiprotease assay, method similar to Ido et al. The series is classed as biochemical. The protocol:
Routine protocols can be followed to determine whether a derivatized buckministerfullerene compound has virucidal properties. […] This method is similar to that described by Ido, et al., J. Biol. Chem., 266:24359-24366, 1991). Inhibition is time dependent, and preincubation with the inhibitor results in greater enzyme inhibition, indicating a slow binding process
as §1

For series [3], the system named is HIV-1G910-6. As to the kind of experiment: microbe, parasite or virus in culture. The series is classed as cell-based. The text has this:
The availability of AZT-resistant and -susceptible viruses allowed us to evaluate the compounds of this invention for their susceptibilities to these viruses in acutely infected PBMC in two experiments. […] In the same assay, the EC50 for TIBO [(+)-(5s)-4,5,6,7-tetrahydro-5methyl-6-(3-methyl-2-butenyl)imidazo(4,5,1-jk)(1,4)benzodiazepin-2(1 H)-thione] R82150 increased >500-fold (data not shown).

Series [4] has as its system nevirapine (BI-RG587)-susceptible HIV-1. As to the kind of experiment: Susceptibility of nevirapine-susceptible HIV-1. The series is classed as cell-based. The conditions noted are these: Human immunodeficiency virus 1, read-out: EC50 against nevirapine-susceptible HIV-1.
For series [5], the target named is T2, HIV-1 protease (HIVP) (Human immunodeficiency virus type 1 group M subtype B, UniProt P04585).
T2 construct: HIV produces a small, dimeric aspartyl protease which specifically cleaves the polyprotein precursors
As to the kind of experiment: Inhibition of HIV-1 protease, HPLC assay with kinetic analysis. The series is classed as biochemical. The protocol:
The ability of compound 2c to inhibit the HIVP was assayed with an HPLC method as described in R. L DesJarlais, et al., Proc. Natl. Acad. Sci U.S.A., 87:6644-6648, 1990. […] Assays were performed in buffer containing 50 mM NaAc pH 5.5, 1.0 M NaCl, 5% glycerol, 1% DMSO, and 2 mM EDTA. Inhibitor was preincubated with ≈0.05 μg of enzyme for 5 minutes at which time the reaction was initiated by addition of substrate. The reaction was quenched at <15% product formation by the addition of 15 μL of 10% TFA. The cleavage products of the substrate peptide H-Lys-Ala-Arg-Val-Tyr-p-nitro-Phe-Glu-Ala-Ile-NH2 (made by Bachem, Philadelphia, Pa.) were assayed by HPLC using a 10-40% (acetonitrile, 0.1% TFA): (water, 0.1% TFA) gradient over 30 minutes at 1 mL/minute. Product was quantitated by integration of peak areas followed by comparison to product standard curves.
Determination of kinetic constants was done with the program KinetAsyst (IntelliKinetics) by fitting of the data to the equation […]] which describes competitive inhibition.

Series [6] deals with HIV-2ROD. As to the kind of experiment: Antiviral activity in acutely infected human PBMC, virus RT level. The conditions noted are these: Human immunodeficiency virus 2, PBMC, 144 h, read-out: Antiviral Activity (EC50) in PBMC infected with HIV-2ROD. The series is classed as cell-based. The protocol:
(§2) Compound 2c was evaluated for antiviral activity in cells acutely and chronically infected with human immunodeficiency virus (HIV). Reverse transcriptase (RT) levels associated with virus were determined with virus concentrated from cell culture supernatants by high-speed centrifugation to reduce the chances of drug carryover in the enzyme assay using the method described in R. F. Schinazi, et al., Antimicrob. Agents Chemother., 36:2423-2431, 1992.

In series [7] the test system is HIV-1 LAI. The series is described as above. Conditions: Human immunodeficiency virus 1, PBMC, 144 h, read-out: Antiviral Activity (EC50) in PBMC infected with HIVLAI. The series is classed as cell-based. The protocol:
as §2

The test system of series [8] is HIV-1 and HIV-2. The series is described as follows: Antiviral activity in acutely or chronically infected human lymphocytes (summary statements). The series is classed as cell-based. An excerpt: The water soluble C60 derivatives for inactivating HIV by interacting with HIV by Van der Waals contacts with the nonpolar HIVP surface, are substituted symmetrically with organic moieties comprising from 1 to about 20 carbon atoms each and optionally further comprising polar heteroatoms, such as oxygen and nitrogen. The preferred fullerene derivatives are diamino derivatives synthesized in three steps from C60 via a suitably substituted diphenyldiazomethane. High-resolution mass spectrometric analysis of these compounds is possible only under the mild conditions of matrix-assisted laser desorption/ionization Fourier transform mass spectrometry. Direct infrared or ultraviolet laser desorption degrades the compounds so that only C60 ions are observed, in either positive or negative mode. Virus inactivation assays are provided for confirming activity of the C60 derivatives against human immunodeficiency virus type 1 (HIV-1) and HIV-2. […] Inhibition of protease (HIVP) and reverse transcriptase (HIVRT) is also shown.
The therapeutic and prophylactic efficacy of the compounds of this invention has been shown by in vitro assays. […]

Series [9] has as its system nevirapine (BI-RG587)-resistant HIV-1. As to the kind of experiment: Susceptibility of nevirapine-resistant HIV-1. The series is classed as cell-based. The conditions noted are these: Human immunodeficiency virus 1, read-out: EC50 against nevirapine-resistant HIV-1.
Series [10] has as its system CEM cells. As to the kind of experiment: Cytotoxicity in CEM cells. The series is classed as cell-based. Conditions: b68: up to 100 μM.
A short description of series [11]: Cytotoxicity in CEM cells. The series is classed as cell-based. Conditions: human, CEM cells; cell counts on day 6.
The nature of series [12]: Cytotoxicity in uninfected PBMC. The series is classed as cell-based, human. The conditions noted are these: human, uninfected PBMC; thymidine uptake day 2 and cell counts day 6.
The subject of series [13] is PBMC. The series is described as follows: Cytotoxicity in uninfected PBMC. The series is classed as cell-based, human. The conditions noted are these: b68: up to 100 μM.
Series [14] in a line: Solubility in water. The conditions noted are these: pH≧7.

SMILES strings stand for the structures. “Also recorded” adds a separate entry of the source. Like-named read-outs stand apart in the source and are kept apart here.

Usually IC50 stands for the concentration that inhibits the measured activity by half. The term Ki denotes a dissociation constant, usually derived from enzyme kinetics or from competition with a known ligand.

Sequence of pepsin (P0DJD8 63-388): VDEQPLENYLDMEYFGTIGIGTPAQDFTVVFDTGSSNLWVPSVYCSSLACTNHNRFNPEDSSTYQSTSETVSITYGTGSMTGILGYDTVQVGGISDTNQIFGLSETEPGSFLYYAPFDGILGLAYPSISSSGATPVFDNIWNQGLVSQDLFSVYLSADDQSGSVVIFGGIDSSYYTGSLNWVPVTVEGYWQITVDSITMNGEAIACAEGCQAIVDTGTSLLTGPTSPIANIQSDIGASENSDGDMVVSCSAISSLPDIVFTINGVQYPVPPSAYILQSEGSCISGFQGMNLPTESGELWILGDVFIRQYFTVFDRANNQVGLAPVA

Regarding `O=C(O)CCC(=O)NCCc1ccc(C2(c3ccc(CCNC(=O)CCC(=O)O)cc3)C34c5c6c7c8c9c%10c(c%11c%12c3c3c5c5c%13c6c6c7c7c9c9c%14c%10c%10c%11c%11c%12c%12c3c3c5c5c%13c%13c6c6c7c9c7c9c%14c%10c%10c%11c%11c%12c3c3c5c5c%13c6c7c6c9c%10c%11c3c56)C824)cc1` [Compound 2c, bis(monosuccinimide) derivative of p,p′-bis(2-aminoethyl)diphenyl-C60], the IC50 in series [1] is 20 µM; in [2], 2 µM; in [12], over 100 µM. Besides, the EC50 amounted to 2.8 µM in series [3] (Human immunodeficiency virus 1, PBMC, read-out: EC50 against AZT-resistant HIV-1, acutely infected PBMC / lymphocytes); 3 µM in series [3] (read-out: EC50 against AZT-resistant HIV-1, acutely infected PBMC / lymphocytes); 0.53 µM in series [4]; 5.5 ± 3.8 µM in [6]; 7.3 ± 5.9 µM in series [7]; 7 µM in series [8] (Human immunodeficiency virus 1, H9, HIV-1, summary, read-out: EC50, acutely and chronically HIV-1 infected PBMC and chronically infected H9 cells). Moreover, the EC50 is about 6 µM in series [8] (Lymphocyte, average over assays, read-out: EC50 averaging, HIV-1 and HIV-2 in acute or chronically infected human lymphocytes); 8.7 µM in [9]. Also, the Ki in series [5] amounted to 5.3 µM. The mode of inhibition entry in series [5] (kinetic analysis of HIVP) is recorded as “competitive”. In series [10], the “cytotoxicity in CEM cells” value was “No cytotoxicity; also recorded: noncytotoxic”. This compound gave an IC50 at 6 days in series [11] of over 100 µM. The entries for the “cytotoxicity in uninfected PBMC (words)” value in [13] and in series [13] (listed as bis(monosuccinimide) derivative of p,p′-bis(2-aminoethyl)-diphenyl) were “No cytotoxicity; also recorded: noncytotoxic” and “no cytotoxicity”, respectively. In addition, in series [14], the “solubility in water” value was “soluble”.
